Molecular target: B-cell lymphoma 6 protein (Homo sapiens, UniProt P41182)
Assay: TR-FRET; call rule not given here

IC50: 21 µM (not active)
Structure (SMILES): C[C@@H]1CN(c2nccc(Nc3ccc4c(c3)n(CCC(C)(C)O)c(=O)n4C)n2)C[C@H](C)C1(F)F

From ChEMBL document CHEMBL5058646 (2022)
